According to patent US10934302B1, “SHP2 phosphatase inhibitors and methods of use thereof” (Relay Therapeutics, Inc., priority 2018, dated 2021):

Each molecule was assayed against SHP2 (Homo sapiens (Human), UniProt Q06124) (assay: SHP2 allosteric inhibition assay (DiFMUP prompt fluorescence)). Conditions: 0.25 nM SHP2 activated with 0.5 μM peptide IRS1_pY1172(dPEG8)pY1222; substrate DiFMUP.
Assay type: biochemical

SHP2, sequence (Q06124 whole entry): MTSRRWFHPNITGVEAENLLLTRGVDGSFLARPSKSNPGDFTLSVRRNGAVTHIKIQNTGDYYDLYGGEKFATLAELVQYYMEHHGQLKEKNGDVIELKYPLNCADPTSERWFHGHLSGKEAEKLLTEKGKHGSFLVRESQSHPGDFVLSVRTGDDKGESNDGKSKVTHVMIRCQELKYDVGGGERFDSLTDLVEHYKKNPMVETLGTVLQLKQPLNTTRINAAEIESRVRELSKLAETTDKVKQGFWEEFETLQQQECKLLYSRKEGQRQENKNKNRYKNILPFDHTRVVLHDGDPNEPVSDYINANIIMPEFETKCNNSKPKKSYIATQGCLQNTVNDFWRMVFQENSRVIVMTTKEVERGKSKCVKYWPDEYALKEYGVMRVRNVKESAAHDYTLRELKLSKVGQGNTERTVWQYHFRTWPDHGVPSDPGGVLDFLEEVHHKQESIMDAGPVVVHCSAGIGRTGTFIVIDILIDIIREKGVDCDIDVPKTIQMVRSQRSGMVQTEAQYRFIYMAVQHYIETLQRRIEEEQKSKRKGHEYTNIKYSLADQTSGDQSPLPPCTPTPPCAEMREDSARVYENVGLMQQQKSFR

Compared with N[C@@H]1c2ccccc2CC12CCN(c1cnc3c(Sc4ccnc(Cl)c4Cl)n[nH]c3n1)CC2 [Example 91], N[C@H]1c2ccccc2CC12CCN(c1cnc3c(Sc4ccnc(Cl)c4Cl)n[nH]c3n1)CC2 [Example 92] is lower in IC50: 1000 to 10000 nM for the first, no more than 50 nM for the second. The second is the more potent here.

Nc1nccc(Sc2cnc(N3CCC4(CC3)Cc3ccccc3[C@H]4N)nc2)c1Cl [Example 93] and Nc1nccc(Sc2ccc(N3CCC4(CC3)Cc3ccccc3[C@H]4N)cn2)c1Cl [Example 97] cannot be ordered by IC50: no more than 50 nM for the first, 50 to 1000 nM for the second.

N[C@@H]1c2ccccc2OC12CCN(c1cnc(Sc3ccnc(Cl)c3Cl)cn1)CC2 [Example 94] and N[C@@H]1c2ccccc2OC12CCN(c1cnc(Sc3ccnc(Cl)c3F)cn1)CC2 [Example 95] cannot be ordered by IC50: no more than 50 nM for the first, no more than 50 nM for the second.

N[C@@H]1c2ccccc2OC12CCN(c1cnc(Sc3cccnc3Cl)cn1)CC2 [Example 96] and N[C@@H]1c2ccccc2CC12CCN(c1cnc(Sc3ccnc(Cl)c3Cl)cn1)CC2 [Example 130, (3S)-1′-{5-[(2,3-dichloropyridin-4-yl)sulfanyl]pyrazin-2-yl}-1,3-dihydrospiro[indene-2,4′-piperidin]-3-amine] cannot be ordered by IC50: no more than 50 nM for the first, no more than 50 nM for the second.

CS(=O)(=O)c1cccc2c1CCCN2c1n[nH]c2nc(N3CCC4(CC3)Cc3ccccc3[C@H]4N)c(CO)nc12 [Example 98, {6-[(3S)-3-amino-1,3-dihydrospiro[indene-2,4′-piperidin]-1′-yl]-3-(5-methanesulfonyl-1,2,3,4-tetrahydroquinolin-1-yl)-1H-pyrazolo[3,4-b]pyrazin-5-yl}methanol] and NC1c2ccccc2CC12CCN(c1nc3[nH]nc(N4CCCc5ncccc54)c3nc1CO)CC2 (centres unmarked) [Example 99] cannot be ordered by IC50: 50 to 1000 nM for the first, no more than 50 nM for the second.

N[C@@H]1c2ccccc2CC12CCN(c1nc3[nH]nc(N4CCCc5ncccc54)c3nc1CO)CC2 [Example 100] and Cc1nc2c(N3CCCc4ncccc43)n[nH]c2nc1N1CCC2(CC1)Cc1ccccc1[C@H]2N [Example 124, (S)-1′-(3-(3,4-dihydro-1,5-naphthyridin-1(2H)-yl)-5-methyl-1H-pyrazolo[3,4-b]pyrazin-6-yl)-1,3-dihydrospiro[indene-2,4′-piperidin]-1-amine] cannot be ordered by IC50: 50 to 1000 nM for the first, no more than 50 nM for the second.

Cn1cc(-c2ccc3c(n2)CCCN3c2n[nH]c3nc(N4CCC5(CC4)Cc4ccccc4[C@H]5N)c(CO)nc23)cn1 [Example 101] and CC(=O)N1CCN(c2n[nH]c3nc(N4CCC5(CC4)Cc4ccccc4[C@H]5N)c(CO)nc23)c2ccccc21 [Example 102] cannot be ordered by IC50: 50 to 1000 nM for the first, no more than 50 nM for the second.

N[C@@H]1c2ccccc2CC12CCN(c1nc3[nH]nc(N4CCCCC4)c3nc1CO)CC2 [Example 103] and N[C@@H]1c2ccccc2CC12CCN(c1nc3[nH]ncc3nc1CO)CC2 [Example 104, (S)-(6-(1-amino-1,3-dihydrospiro[indene-2,4′-piperidin]-1′-yl)-1H-pyrazolo[3,4-b]pyrazin-5-yl)methanol] cannot be ordered by IC50: no more than 50 nM for the first, no more than 50 nM for the second.

N#Cc1cccc2c1[C@@H](N)C1(CCN(c3cnc4c(N5CCCc6ncccc65)n[nH]c4n3)CC1)C2 [Example 105, (3S)-3-amino-1′-[3-(1,2,3,4-tetrahydro-1,5-naphthyridin-1-yl)-1H-pyrazolo[3,4-b]pyrazin-6-yl]-1,3-dihydrospiro[indene-2,4′-piperidine]-4-carbonitrile] and N#Cc1cccc2c1CC1(CCN(c3cnc4c(N5CCCc6ncccc65)n[nH]c4n3)CC1)[C@@H]2N [Example 117, (S)-1-amino-1′-(3-(3,4-dihydro-1,5-naphthyridin-1(2H)-yl)-1H-pyrazolo[3,4-b]pyrazin-6-yl)-1,3-dihydrospiro[indene-2,4′-piperidine]-4-carbonitrile] cannot be ordered by IC50: no more than 50 nM for the first, no more than 50 nM for the second.

COc1ccc2c(n1)[C@@H](N)C1(CCN(c3cnc4c(N5CCCc6ncccc65)n[nH]c4n3)CC1)C2 [Example 106] and COc1ccc2c(n1)CC1(CCN(c3cnc4c(N5CCCc6ncccc65)n[nH]c4n3)CC1)[C@@H]2N [Example 108] cannot be ordered by IC50: no more than 50 nM for the first, no more than 50 nM for the second.

N[C@@H]1c2cc(F)cc(F)c2CC12CCN(c1cnc3c(N4CCCc5ncccc54)n[nH]c3n1)CC2 [Example 109] and N[C@@H]1c2c(F)ccc(F)c2CC12CCN(c1cnc3c(N4CCCc5ncccc54)n[nH]c3n1)CC2 [Example 112] cannot be ordered by IC50: no more than 50 nM for the first, no more than 50 nM for the second.

Cn1ncc2c1CC1(CCN(c3cnc4c(N5CCCc6ncccc65)n[nH]c4n3)CC1)[C@@H]2N [Example 110] and N[C@H]1c2ccccc2OC12CCN(c1cnc3c(N4CCCc5ncccc54)n[nH]c3n1)CC2 [Example 118, (S)-1′-(3-(3,4-dihydro-1,5-naphthyridin-1(2H)-yl)-1H-pyrazolo[3,4-b]pyrazin-6-yl)-3H-spiro[benzofuran-2,4′-piperidin]-3-amine] cannot be ordered by IC50: no more than 50 nM for the first, no more than 50 nM for the second.

N[C@@H]1c2ccccc2CC12CCN(c1cnc(C(=O)N3CCCc4ncccc43)cn1)CC2 [Example 111] and Nc1nccc(Oc2cnc(N3CCC4(CC3)Cc3ccccc3[C@H]4N)cn2)c1Cl [Example 133, (3S)-1′-{5-[(2-amino-3-chloropyridin-4-yl)oxy]pyrazin-2-yl}-1,3-dihydrospiro[indene-2,4′-piperidin]-3-amine] cannot be ordered by IC50: no more than 50 nM for the first, no more than 50 nM for the second.

N[C@H]1c2ccccc2CC12CN(c1cnc3c(N4CCCc5ncccc54)n[nH]c3n1)C2 [Example 114] and N[C@@H]1c2ccccc2CC12CN(c1cnc3c(N4CCCc5ncccc54)n[nH]c3n1)C2 [Example 115] cannot be ordered by IC50: no more than 50 nM for the first, no more than 50 nM for the second.

N[C@@H]1c2ccccc2OC12CCN(c1cnc3c(N4CCCc5ncccc54)n[nH]c3n1)CC2 [Example 119, (R)-1′-(3-(3,4-dihydro-1,5-naphthyridin-1(2H)-yl)-1H-pyrazolo[3,4-b]pyrazin-6-yl)-3H-spiro[benzofuran-2,4′-piperidin]-3-amine] and N[C@@H]1c2ccccc2CC12CCN(c1nc3[nH]nc(N4CCCc5ncccc54)c3nc1C(F)F)CC2 [Example 140, (S)-1′-(5-(difluoromethyl)-3-(3,4-dihydro-1,5-naphthyridin-1(2H)-yl)-1H-pyrazolo[3,4-b]pyrazin-6-yl)-1,3-dihydrospiro[indene-2,4′-piperidin]-1-amine] cannot be ordered by IC50: no more than 50 nM for the first, no more than 50 nM for the second.

N[C@@H]1c2ccccc2CC12CCN(c1nccnc1CO)CC2 [Example 120, {3-[(3S)-3-amino-1,3-dihydrospiro[indene-2,4′-piperidin]-1′-yl]pyrazin-2-yl}methanol] and Nc1cnc(CO)c(N2CCC3(CC2)Cc2ccccc2[C@H]3N)n1 [Example 123, {5-amino-3-[(3S)-3-amino-1,3-dihydrospiro[indene-2,4′-piperidin]-1′-yl]pyrazin-2-yl}methanol] cannot be ordered by IC50: no more than 50 nM for the first, no more than 50 nM for the second.

CNC(=O)c1n[nH]c2nc(N3CCC4(CC3)Cc3ccccc3[C@H]4N)c(C)nc12 [Example 125, 6-[(3S)-3-amino-1,3-dihydrospiro[indene-2,4′-piperidin]-1′-yl]-N,5-dimethyl-1H-pyrazolo[3,4-b]pyrazine-3-carboxamide] and Cc1nccc(Oc2n[nH]c3nc(N4CCC5(CC4)Cc4ccccc4[C@H]5N)cnc23)c1Cl [Example 127] cannot be ordered by IC50: no more than 50 nM for the first, 50 to 1000 nM for the second.

N[C@@H]1c2ccccc2CC12CCN(c1cnc3c(Oc4ccnc(Cl)c4Cl)n[nH]c3n1)CC2 [Example 126, (3S)-1′-{3-[(2,3-dichloropyridin-4-yl)oxy]-1H-pyrazolo[3,4-b]pyrazin-6-yl}-1,3-dihydrospiro[indene-2,4′-piperidin]-3-amine] and N[C@@H]1c2ccccc2CC12CCN(c1cnc3c(Oc4cc[nH]c(=O)c4Cl)n[nH]c3n1)CC2 [Example 135, 4-({6-[(3S)-3-amino-1,3-dihydrospiro[indene-2,4′-piperidin]-1′-yl]-1H-pyrazolo[3,4-b]pyrazin-3-yl}oxy)-3-chloro-1,2-dihydropyridin-2-one] cannot be ordered by IC50: no more than 50 nM for the first, no more than 50 nM for the second.

Cn1ccc(Oc2n[nH]c3nc(N4CCC5(CC4)Cc4ccccc4[C@H]5N)cnc23)c(Cl)c1=O [Example 128, (S)-4-((6-(1-amino-1,3-dihydrospiro[indene-2,4′-piperidin]-1′-yl)-1H-pyrazolo[3,4-b]pyrazin-3-yl)oxy)-3-chloro-1-methylpyridin-2(H)-one] and Cn1ccc(Sc2cnc(N3CCC4(CC3)Cc3ccccc3[C@H]4N)cn2)c(Cl)c1=O [Example 132, 4-({5-[(3S)-3-amino-1,3-dihydrospiro[indene-2,4′-piperidin]-1′-yl]pyrazin-2-yl}sulfanyl)-3-chloro-1-methyl-1,2-dihydropyridin-2-one] cannot be ordered by IC50: no more than 50 nM for the first, no more than 50 nM for the second.

Nc1cc(Sc2cnc(N3CCC4(CC3)Cc3ccccc3[C@H]4N)cn2)c(Cl)c(Cl)n1 [Example 129, (S)-1′-(5-((6-amino-2,3-dichloropyridin-4-yl)thio)pyrazin-2-yl)-1,3-dihydrospiro[indene-2,4′-piperidin]-1-amine] and N[C@@H]1c2ccccc2CC12CCN(c1cnc(Sc3cc[nH]c(=O)c3Cl)cn1)CC2 [Example 131, 4-({5-[(3S)-3-amino-1,3-dihydrospiro[indene-2,4′-piperidin]-1′-yl]pyrazin-2-yl}sulfanyl)-3-chloro-1,2-dihydropyridin-2-one] cannot be ordered by IC50: no more than 50 nM for the first, no more than 50 nM for the second.

N[C@@H]1c2ccccc2CC12CCN(c1cnc(Oc3ccnc(Cl)c3Cl)cn1)CC2 [Example 134, (3S)-1′-{5-[(2,3-dichloropyridin-4-yl)oxy]pyrazin-2-yl}-1,3-dihydrospiro[indene-2,4′-piperidin]-3-amine] and Nc1nccc(Nc2n[nH]c3nc(N4CCC5(CC4)Cc4ccccc4[C@H]5N)cnc23)c1Cl [Example 138, (S)—N4-(6-(1-amino-1,3-dihydrospiro[indene-2,4′-piperidin]-1′-yl)-1H-pyrazolo[3,4-b]pyrazin-3-yl)-3-chloropyridine-2,4-diamine] cannot be ordered by IC50: no more than 50 nM for the first, no more than 50 nM for the second.

Nc1nccc(Sc2cnc(N3CCC4(CC3)Cc3c(F)cccc3[C@H]4N)cn2)c1Cl [Example 139, (S)-1′-(5-((2-amino-3-chloropyridin-4-yl)thio)pyrazin-2-V)-4-fluoro-1,3-dihydrospiro[indene-2,4′-piperidin]-1-amine] and N[C@@H]1c2ccccc2CC12CCN(c1cnc3c(C#Cc4ccccc4)n[nH]c3n1)CC2 [Example 143, (S)-1′-(3-(phenylethynyl)-1H-pyrazolo[3,4-b]pyrazin-6-yl)-1,3-dihydrospiro[indene-2,4′-piperidin]-1-amine] cannot be ordered by IC50: no more than 50 nM for the first, no more than 50 nM for the second.
